The values that follow come from US10533034B2, “Human iNKT cell activation using glycolipids” (ACADEMIA SINICA, priority 2014, dated 2020).

In one experiment the target is Vα24+/Vβ11+ iNKT TCR (Homo sapiens, UniProt A0A075B6N4+A0A0B4J240+P15813). Briefly: Binding avidity of hCD1d-loaded glycolipids with Vα24+ iNKT cells (ternary interaction). As to conditions: for Kd: in complex with hCD1d, Scatchard transformation, read-out: KD of ternary complex, hCD1d-glycolipid toward Vα24+/Vβ11+ iNKT TCR. The method, then: (3A) DN3A4-1.2 Vα14+ iNKT hybridoma cells and (3B) 7DW8-5-expanded Vα24^+ iNKT cells were incubated with various concentrations of the indicated dimeric mCD d-glycolipid and hCD1d-glycolipid complexes for 30 min at 4° C., respectively. The level of bound complexes at the indicated concentration was detected by anti-mIgG1 secondary antibody and analyzed by flow cytometry. The relationship between the binding percentage and the concentration of CD1ddi-glycolipids complex was plotted in mice (3A) and humans (3B). KD values in mice (3C) and humans (3D) were calculated from Scatchard transformation of the plot (3A) and 3B), respectively. Assay was performed in duplicates. Binding avidity of human CD1d-glycolipid complexes to Vα24^+ iNKT cells expanded by 7DW8-5 at 100 ng/ml was determined as described previously.^19 Next, we measured the ternary interaction between CD1d-glcolipid complex and the iNKT TCR in mice and humans. Different concentrations of mCD1d^di-glycolipid and hCD1d^di-glycolipid complexes were incubated with fixed amounts of DN3A4-1.2 murine iNKT hybridoma cells and human Vα24+/Vβ11^+ iNKT cells, respectively. The level of bound complexes at the indicated concentration was detected by anti-mIgG1 secondary antibody and analyzed by flow cytometry (FIGS. 3A and 3B). The KD of the ternary complex was calculated from the Scatchard transformation of the plots in FIGS. 3A and 3B using GraphPad Prism software. […] This was consistent with the observation that higher percentages of C1-pulsed splenocytes were stained by the mCD1d-7DW8-5 complex (36.2±5.0%) than mCD1d-7DW8-5-Glc complex (17.1±0.8%) (FIG. 11).
Sequence of Vα24+/Vβ11+ iNKT TCR (P01848 whole entry): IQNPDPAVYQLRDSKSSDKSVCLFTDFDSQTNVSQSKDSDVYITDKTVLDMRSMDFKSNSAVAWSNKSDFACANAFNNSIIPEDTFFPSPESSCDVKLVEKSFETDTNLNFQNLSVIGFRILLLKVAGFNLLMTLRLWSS
Sequence of Vα24+/Vβ11+ iNKT TCR (A0A075B6N4 22-114): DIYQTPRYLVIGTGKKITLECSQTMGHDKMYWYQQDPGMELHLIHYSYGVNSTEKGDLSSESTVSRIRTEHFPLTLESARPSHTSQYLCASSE
Sequence of Vα24+/Vβ11+ iNKT TCR (P61769 21-119, further chain): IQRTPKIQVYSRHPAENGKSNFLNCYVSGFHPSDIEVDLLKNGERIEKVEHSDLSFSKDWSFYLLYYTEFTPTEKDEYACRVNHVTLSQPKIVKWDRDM
Sequence of Vα24+/Vβ11+ iNKT TCR (A0A0B4J240 22-114): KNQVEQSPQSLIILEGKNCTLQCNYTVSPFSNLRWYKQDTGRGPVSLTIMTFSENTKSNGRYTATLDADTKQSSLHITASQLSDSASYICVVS
Sequence of Vα24+/Vβ11+ iNKT TCR (P15813 20-301): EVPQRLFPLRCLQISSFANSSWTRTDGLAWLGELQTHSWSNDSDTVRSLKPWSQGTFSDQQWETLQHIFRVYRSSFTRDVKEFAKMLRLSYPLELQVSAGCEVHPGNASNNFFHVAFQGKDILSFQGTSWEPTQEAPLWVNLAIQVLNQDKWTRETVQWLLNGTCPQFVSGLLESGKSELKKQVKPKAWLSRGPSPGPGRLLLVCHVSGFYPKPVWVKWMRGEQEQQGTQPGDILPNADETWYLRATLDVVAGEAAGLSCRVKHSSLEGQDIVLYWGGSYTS

The test system of another experiment is C1-pulsed splenocytes. Nature of the experiment: CD1d dimer staining of in vivo C1-pulsed splenocytes. The class given is binding, B6 WT mice. As to conditions: CD3+/CD45R− gated; 3 days after C1 1 μg/mouse. As for the experimental part: B6 WT splenocytes (n=3) were harvested 3 days after injection with C1 (1 μg/mouse) and stained with CD3, CD45R and the indicated dimer complex conjugated with RPE for 1 hr at 4 degrees Celsius. (11A) CD3+/CD45R− cells were gated to analyze the dimer staining. (11B) unloaded dimer was used as the control. (11C) mCD1d dimer loaded with 7DW8-5-Glc stained 17.1±0.8% of C1-pulsed splenocytes. (11D) mCD1d dimer loaded with 7DW8-5 stained 36.2±5.0% of C1-pulsed splenocytes.

For the next experiment, the system named is mCD1d dimer. Briefly: Binding strength of the binary complex between mCD1d and glycolipid (L363 antibody ELISA). Also noted: species or system mouse. The method, then: (10A, 10B) Different concentrations of mCD1d-glycolipid complexes coated on the ELISA plate were incubated with the saturated amount of L363 antibody conjugated with biotin, followed by streptavidin-HRP detection and ELISA measurement. (10A) The relationship between OD values reflecting L363 antibody binding and the concentration of CD1ddi-glycolipids complex was plotted. (10B) The dissociation constant (KD) between L363 antibody and the indicated mCD1d-glycolipid complex was calculated as described in Materials and methods. (10C) The relationship between OD values reflecting L363 antibody binding and the concentration of glycolipids was plotted. (10D) KD values of the binary complex were calculated from the linear regression of the Scatchard transformation of the L363 antibody binding curve (10C).
Different concentrations of mCD1d^di-glycolipid complexes coated on the ELISA plate were incubated with the saturated amounts of L363 antibody (BioLegend) conjugated with biotin, followed by streptavidin-HRP detection and ELISA measurement. The KD between L363 antibody and the indicated mCD1d^di-glycolipid complex was calculated from the linear regression of the Scatchard transformation of the L363 antibody binding curve using GraphPad Prism software. […] Next, the KD of the binary complex was determined as follows. […]
In general terms: ELISA stands for enzyme-linked immunosorbent assay.

Another experiment relates to Jα18 KO mice. Nature of the experiment: Murine serum cytokine/chemokine secretion after i.v. glycolipid, Jα18 knockout mice. As to conditions: 1 μg/mouse; sera 2 and 18 hr. The class given is in vivo. The method, then:
B6 wild type and Jα18 knockout mice were i.v. injected with the indicated glycolipids (1 μg/mouse) or vehicle. Sera collected at 2 h and 18 h post-injection were analyzed for cytokines like IL-2 (7A), IL-6 (7B), GM-CSF (7C) and TNFα (7D) as well as chemokines such as IP-10 (7E), MIG (7F), KC (7G) and MCP-1 (7H). Only MIG peaked at 18 hr post-injection, while the others peaked at 2 hr post-injection.
All the glycolipids were dissolved in 100% DMSO at a concentration of 1-2 mg/ml. For in vivo experiments, all compounds were diluted to 10 μg/ml in saline just before injection of 100 μl diluted glycolipid or 100 μl 1% DMSO into mice. Pathogen-free C57BL/6 female mice aged 6-12 weeks were obtained from the National Laboratory Animal Center (Taipei, Taiwan). Jα18 knockout (KO) B6 mice were the gifts from Dr. Masaru Taniguchi (RIKEN Research Center for Allergy and Immunology, Yokohama, Japan). All the mice were maintained in pathogen free vivarium of Institute of Cellular and Organismic Biology, Academia Sinica (Taipei, Taiwan).
B6 WT or Jα18 KO mice were intravenously injected with vehicle or glycolipids at 0.1 or 1 μg/mouse. Serum was collected at 2 and 18 h after injection for measurement of cytokines/chemokines by Beadlyte® Mouse Cytokine kit (Millipore, N.Y.) and read by a Luminex® 200™ system (Luminex, Austin, Tex.).

Molecules are shown by their SMILES.

For `CCCCCCCCCCCCCC[C@@H](O)[C@@H](O)[C@H](CO[C@H]1O[C@H](CO)[C@@H](O)[C@H](O)[C@@H]1O)NC(=O)CCCCCCCCCCc1ccc(F)cc1` [Compound 7DW8-5-Man], the “staining of human iNKT cells with CD1d-glycolipid dimer” value on Vα24+/Vβ11+ iNKT TCR was “lack of staining”.
`CC[C@@H](O)[C@@H](O)[C@H](CO[C@H]1OC(CO)[C@@H](O)C(O)C1O)NC(=O)Cc1ccc(F)cc1` (stereo partly shown) [Compound 7DW8-5-Glc]: the Kd at Vα24+/Vβ11+ iNKT TCR came to 0.481 ± 0.008 nM. For the same compound, in the experiment with C1-pulsed splenocytes, the “percentage of C1-pulsed splenocytes stained by mCD1d dimer loaded with glycolipid” value turned out to be 17.1±0.8%. In addition, the “binding avidity to mCD1d dimer, fold greater than αGalCer” value with mCD1d dimer was around 20 fold. In the experiment on Jα18 KO mice, the “induction of cytokines in Jα18 KO mice” value is on record as “no induction”; the “secretion of chemokines KC, MCP-1, IP-10 and MIG in Jα18 KO mice” value is “triggered the secretion”.
In the case of `CCCCCCCCCCCCCC[C@@H](O)[C@@H](O)[C@H](CO[C@H]1O[C@H](CO)[C@H](O)[C@H](O)[C@H]1O)NC(=O)CCCCCCCCCCc1ccc(F)cc1` [Compound 7DW8-5, reference compound], the Kd on Vα24+/Vβ11+ iNKT TCR turned out to be 0.777 ± 0.022 nM. Further, in the experiment with C1-pulsed splenocytes, the “percentage of C1-pulsed splenocytes stained by mCD1d dimer loaded with glycolipid” value is given as 36.2±5.0%. Besides, in the experiment with mCD1d dimer, the “binding avidity to mCD1d dimer, fold greater than αGalCer” value is recorded as around 20 fold. Also, in the experiment on Jα18 KO mice, the “induction of cytokines in Jα18 KO mice” value is “no induction”.
